The values that follow come from ChEMBL document CHEMBL1148982, “Novel cytotoxic thiodiketopiperazine derivatives from a Tilachlidium sp” (2004).

For this assay, the system named is P388. As to the kind of experiment: Cytotoxicity against mouse P388 cells after 1 to 11 days by MTT assay. The note with it: read-out: ID50 (the source's name). It counts as functional.

On to `CN1C(=O)[C@]23SSS[C@]1(CO)C(=O)N2[C@H]1Nc2ccccc2[C@@]1(c1c[nH]c2ccccc12)[C@@H]3O`, for which the IC50 worked out at 250 nM.

Turning to `CS[C@@]1(CO)C(=O)N2[C@H]3Nc4ccccc4[C@@]3(c3c[nH]c4ccccc34)[C@H](O)[C@]2(SC)C(=O)N1C` [T988 B], the IC50 is 2180 nM.

Take `CN1C(=O)[C@]23SS[C@]1(CO)C(=O)N2[C@H]1Nc2ccccc2[C@@]1(c1c[nH]c2ccccc12)[C@@H]3O` [T988 C]: the IC50 was determined as 560 nM.
